Source: paper PMC9004346, “Development of small cyclic peptides targeting the CK2α/β interface” (Chemical Communications (Cambridge, England), 2022)
Positions count from the first letter of the chain named. *1 amine or outer side, *2 acyl side, *3 side chain or, on linkers, in order; H or OH if unused. Where a SMILES comes first, the peptide text is derived from it. Bridges are numbered along the chain shown (N, C = ends). Side-chain parts run from the residue outwards. [ ]: non-standard residue; d: D form. The star is where a group is joined. Trp(2-yl) = O=C([C@H](Cc1c([*:3])[nH]c2ccccc12)N[*:1])[*:2]; X1 = CN(CC(=O)O)c1nc(CC[*:1])cc(CC[*:2])n1; Dap(N3) = [N-]=[N+]=NC[C@H](N)C(=O)O; mXylylene = c1cc(C[*:1])cc(C[*:2])c1; CH2COCH2 = O=C(C[*:1])C[*:2]; Lauroyl = CCCCCCCCCCCC(=O)*; hCys = N[C@@H](CCS)C(=O)O; AEEA = NCCOCCOCC(=O)O; CH2 = C([*:1])[*:2]

Tests used:
[1] = MTT cell viability assay in HeLa cells; assay type: cell-based; details: human, HeLa cells, 48 h, ±standard deviation
Method: HeLa cells were maintained in 5% CO2 in DMEM supplemented with 10% FBS, 2 mM L-glutamine, 100 U/mL penicillin and […] streptomycin, in an atmosphere containing 5% CO2.
Cells were regularly passed and used for experiments within one month after thawing (10-15 […]
1.6.2 Cell viability assay
Cell viability was assayed by 3-(4,5-dimethylthiazol-2-yl)-2,5-diphenyltetrazolium bromide (MTT) colorimetric assay. HeLa cells were plated on 96-well plates (20,000 cells per well in 100 μL). After 24 h, cells were treated with different concentrations of test compounds or vehicle alone (DMSO). One hour before the end of the incubations, 10 μL of MTT solution (5 mg/mL in PBS) were added to each well. Formazan crystals (proportional to the number of viable cells) were then dissolved by the addition of 20 μL/well of a pH 4.7 solution containing 20% (w:v) SDS, 50% (v:v) N,N-dimethylformamide, 2% (v:v) acetic acid, and 25 mM HCl, and quantified by recording the absorbance at 570 nm using an Infinite M200 PRO plate reader (TECAN, Life Sciences). […]

CK2α [2] = target: T1, CK2α (Homo sapiens, UniProt P68400, K74A/K75A/K76A/R21S); assay: Isothermal titration calorimetry (ITC) binding to CK2α; details: 25 °C, CK2α_KA
T1 construct: CK2α_KA (residues 2-329) contained four mutations; made in house
T1 sequence (P68400 2-329 R21S/K74A/K75A/K76A): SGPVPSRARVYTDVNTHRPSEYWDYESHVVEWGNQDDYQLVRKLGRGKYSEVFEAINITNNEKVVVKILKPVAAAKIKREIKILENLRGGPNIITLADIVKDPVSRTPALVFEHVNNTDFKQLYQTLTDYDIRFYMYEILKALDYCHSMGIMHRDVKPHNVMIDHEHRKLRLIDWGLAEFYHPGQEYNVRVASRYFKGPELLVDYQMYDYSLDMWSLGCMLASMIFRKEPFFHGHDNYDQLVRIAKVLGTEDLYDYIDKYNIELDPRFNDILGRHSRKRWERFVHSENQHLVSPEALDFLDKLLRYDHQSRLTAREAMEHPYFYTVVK
Source text: Ligand efficiency (LE) is a commonly used statistic to evaluate and compare the effectiveness of drug candidates.17 Mathematically, it is related to the IC50 of the molecule, as well as the number of heavy atoms (non-hydrogen) it contains, as detailed in Equation 1. 18
Equation 1 Mathematical expression for the ligand efficiencies of compounds.18 pIC50 = -log10(IC50) LE = Number of non ‒ H atoms […]
greatest activity with the fewest heavy atoms.
(§1) 1.5 Biophysical experiments
(§2) 1.5.1 Protein expression and purification
Three constructs of CK2α were used in this study. For FP assays, CK2α_WT was used (residues 2-329).
For ITC CK2α_KA construct was used whilst CK2α_FP10 was used for crystallisation purposes. CK2α_KA (residues 2-329) contained four mutations designed to aid crystallisation and solubility by reducing the overall charge of the protein; R21S, K74A, K75A and K76A. CK2α_FP 10 contained one mutation (R21S) and an N-terminal extension […] aimed at mimicking a substrate peptide for CK2α. These constructs were cloned, expressed, and purified as previously described.19 1.5.2 Fluorescence polarisation
(§3) IC50’s were determined using a PHERAstar FS plate reader (BMG labtech). The fluorescein probe was measured using 485 nm excitation and 530 nm emission. The fluorescein probe was covalently linked to the N-terminus of the linear CK2β-based peptide RLYGFKIHPMAYQLQ. IC50’s were measured using 500, 167, 16.7, 8.33 and 0 μM of the test peptide at a constant concentration of DMSO. P7C8, P8C9, P+L and P+ were tested at concentrations of 50.0, 16.7, 1.67, 0.833 and 0 μM due to their higher potencies. The experiments were performed in a Corning 384-well plate with final concentrations of 571 nM CK2α_WT (residues 2-329), 7.4 μM fluorescent peptide (fluorescein probe was covalently linked to the N-terminus of the linear CK2β-based peptide RLYGFKIHPMAYQLQ), 200 mM NaCl, 40mM TRIS, 20 mM MgCl2 and pH 7.5. The plates were read after a 45 min incubation period.
1.5.3 Isothermal titration calorimetry
All ITC experiments were performed at 25 °C using a MicroCal ITC-200 (GE Healthcare). […]

[3] = Solubility observations during FP and ITC testing; assay type: physicochemical; details: observed during FP or ITC testing
CK2α [4] = target: T2, CK2α (Homo sapiens, UniProt P68400); assay: Fluorescence polarisation (FP) assay: displacement of a CK2β-like fluorescent probe from CK2α; assay type: binding; details: CK2α_WT (residues 2-329), fluorescein-labelled CK2β-based peptide probe, ±SEM
T2 construct: 571 nM CK2α_WT (residues 2-329); made in house
T2 sequence (P68400 2-329): T1 sequence (P68400 2-329 R21S/K74A/K75A/K76A) with S20R, A73K, A74K, A75K
Source text: To assess the ability of the synthesised linear peptides to displace a CK2β-like fluorescent probe from CK2α, a fluorescence polarisation (FP) assay was used (Table 1, ESI 1.3.2 and Fig. S2, ESI ^†). […]
as §1, §2
Three constructs of CK2α were used in this study. For FP assays, CK2α_WT was used (residues 2-329). […]
These constructs were cloned, expressed, and purified as previously described.19 1.5.2 Fluorescence polarisation
as §3, with “period. […]” for “period.”

| Compound | IC50 (CK2α [4]) [µM] | further results |
| --- | --- | --- |
| O=C(O)c1ccc2c(c1)nc(Nc1cccc(Cl)c1)c1ccncc12 [CX-4945, reference compound] |  | viability at 48 h, 50 µM ([1]; 50 μM compound, read-out: Cell viability (%) 50 μM compound): 29 ± 1%; viability at 48 h, 100 µM ([1]; 100 μM compound, read-out: Cell viability (%) 100 μM compound): 21 ± 1% |
| CCCCCCCCCCCC(=O)NCCOCCOCC(=O)N[C@H]1CCSc2[nH]c3ccccc3c2C[C@@H](C(N)=O)NC(=O)[C@H](CCCCN)NC(=O)[C@H](Cc2ccccc2)NC(=O)CNC(=O)[C@H](Cc2ccc(O)cc2)NC(=O)[C@H](CC(C)C)NC(=O)[C@H](CCCNC(=N)N)NC1=O [FA-P8C9] ({Lauroyl-AEEA}-[hCys]RLYGFK[Trp(2-yl)]-NH2; thioether 1-8) |  | Kd (CK2α [2]): 1.3 µM |
| CCCCCCCCCCCC(=O)NCCOCCOCC(=O)NCCCC[C@@H]1NC(=O)[C@H](Cc2ccccc2)NC(=O)CNC(=O)[C@H](Cc2ccc(O)cc2)NC(=O)[C@H](CC(C)C)NC(=O)[C@H](CCCNC(=N)N)NC(=O)[C@@H](NC(C)=O)CCSc2[nH]c3ccccc3c2C[C@@H](C(N)=O)NC1=O [P8C9[FA]] (Ac-[hCys]RLYGFK([AEEA-Lauroyl])[Trp(2-yl)]-NH2; thioether 1-8) |  | Solubility (observation in words) [3]: Precipitation |
| CC(=O)NCCOCCOCC(=O)NCCCC[C@@H]1NC(=O)[C@H](Cc2ccccc2)NC(=O)CNC(=O)[C@H](Cc2ccc(O)cc2)NC(=O)[C@H](CC(C)C)NC(=O)[C@H](CCCNC(=N)N)NC(=O)[C@@H](NC(C)=O)CCSc2[nH]c3ccccc3c2C[C@@H](C(N)=O)NC1=O [P8C9[PEG]] (Ac-[hCys]RLYGFK([AEEA-Ac])[Trp(2-yl)]-NH2; thioether 1-8 (inferred)) |  | Kd (CK2α [2]): 1.6 µM |
| CC(=O)NCC(=O)N[C@H]1Cn2cc(nn2)-c2cc(C(=O)O)cc(c2)-c2cn(nn2)C[C@@H](C(=O)NCC(=O)NCC(N)=O)NC(=O)[C@H](Cc2c[nH]cn2)NC(=O)[C@H](Cc2c[nH]c3ccccc23)NC(=O)[C@H](CCCCN)NC(=O)[C@H](Cc2ccccc2)NC(=O)CNC(=O)[C@H](Cc2ccc(O)cc2)NC(=O)[C@H](CC(C)C)NC(=O)[C@H](CCCNC(=N)N)NC1=O [P+, GXC1RLYGFKWHXC1GG, reference compound] | 8.7 ± 4.2 |  |
| CC(=O)NCC(=O)N[C@@H](CN=[N+]=[N-])C(=O)N[C@@H](CCCNC(=N)N)C(=O)N[C@@H](CC(C)C)C(=O)N[C@@H](Cc1ccc(O)cc1)C(=O)NCC(=O)N[C@@H](Cc1ccccc1)C(=O)N[C@@H](CCCCN)C(=O)N[C@@H](Cc1c[nH]c2ccccc12)C(=O)N[C@@H](Cc1c[nH]cn1)C(=O)N[C@@H](CN=[N+]=[N-])C(=O)NCC(=O)NCC(N)=O [P+L, reference compound] (Ac-G[Dap(N3)]RLYGFKWH[Dap(N3)]GG-NH2) | 11.7 |  |
| CC(=O)N[C@H]1CSCC(=O)CSC[C@@H](C(N)=O)NC(=O)[C@H](CCCCN)NC(=O)[C@H](Cc2ccccc2)NC(=O)CNC(=O)[C@H](Cc2ccc(O)cc2)NC(=O)[C@H](CC(C)C)NC(=O)[C@H](CCCNC(=N)N)NC1=O [Peptide P5C4] (Ac-CRLYGFKC-NH2; linker 1-8 via CH2COCH2) | 54.6 ± 11.2 |  |
| CC(=O)N[C@H]1CSCc2cccc(c2)CSC[C@@H](C(N)=O)NC(=O)[C@H](CCCCN)NC(=O)[C@H](Cc2ccccc2)NC(=O)CNC(=O)[C@H](Cc2ccc(O)cc2)NC(=O)[C@H](CC(C)C)NC(=O)[C@H](CCCNC(=N)N)NC1=O [Peptide P5C5] (Ac-CRLYGFKC-NH2; linker 1-8 via mXylylene) | 28.9 ± 1.9 |  |
| CC(=O)N[C@H]1CSCSC[C@@H](C(N)=O)NC(=O)[C@H](CCCCN)NC(=O)[C@H](Cc2ccccc2)NC(=O)CNC(=O)[C@H](Cc2ccc(O)cc2)NC(=O)[C@H](CC(C)C)NC(=O)[C@H](CCCNC(=N)N)NC1=O [Peptide P5C6] (Ac-CRLYGFKC-NH2; linker 1-8 via CH2) |  | Solubility (observation in words) [3]: poor solubility |
| CC(=O)N[C@H]1CSCCc2cc(nc(N(C)CC(=O)O)n2)CCSC[C@@H](C(N)=O)NC(=O)[C@H](CCCCN)NC(=O)[C@H](Cc2ccccc2)NC(=O)CNC(=O)[C@H](Cc2ccc(O)cc2)NC(=O)[C@H](CC(C)C)NC(=O)[C@H](CCCNC(=N)N)NC1=O [Peptide P5C7] (Ac-CRLYGFKC-NH2; linker 1-8 via X1) | 40 ± 4.7 |  |
| CC(=O)N[C@H]1CSc2[nH]c3ccccc3c2C[C@@H](C(N)=O)NC(=O)[C@H](CCCCN)NC(=O)[C@H](Cc2ccccc2)NC(=O)CNC(=O)[C@H](Cc2ccc(O)cc2)NC(=O)[C@H](CC(C)C)NC(=O)[C@H](CCCNC(=N)N)NC1=O [Peptide P7C8, CC8RLYGFKWC8] (Ac-CRLYGFK[Trp(2-yl)]-NH2; thioether 1-8) | 15.6 ± 5.1 |  |

Second part, led by results:

| IC50 (CK2α [4]) [µM] | Compound | further results |
| --- | --- | --- |
| 137 ± 25.8 | Ac-LYGFKW-NH2 [Peptide P2, LYGFKW] |  |
| > 500 | Ac-RLYGFK-NH2 [Peptide P1, RLYGFK] |  |
| 22.5 ± 2.4 | Ac-RLYGFKW-NH2 [Peptide P3, RLYGFKW] |  |
| 16.7 ± 2.3 | Ac-RLYGFKWH-NH2 [Peptide P4, RLYGFKWH] |  |
